{"source": "patent US20110027230A1", "about": "(priority 2008, published 2011)", "key": {"[1]": {"test_system": "C57BL/6J-APC Min/+ transgenic mice", "assay": "Number and volume of intestinal polyps in APC Min/+ mice fed different diets for 10 weeks", "format": "in vivo, mouse", "settings": "standard diet, s.c. pellet 1.5 mg 17β-estradiol, mean ± SD", "source_text": "The C57BL/6J APC Min/+ transgenic mouse is an excellent animal model for FAP, because the mutated APC gene is homologous to the human one. Even in the most common form of CRC, called sporadic, 85% of cases show the somatic mutation of the APC tumour suppressor gene. Therefore, the APC mutated transgenic animal model is acknowledged as the most significant for the study of the pathogenetic mechanisms that characterise the adenomatous polyposis in the colon, both in FAP and sporadic form, and it is considered a validated animal model for the set up of nutritional and pharmacological interventions aimed at controlling the development of adenomas and at preventing their progression to CRC (Levy D B et al. Inactivation of both APC alleles in human and mouse tumors. Cancer Res 1994, 54: 5953-5958; Paulsen J E et al. Qualitative and quantitative relationship between dysplastic aberrant crypt foci and tumorigenesis in the Min/+ mouse colon). For this reason, in setting up the oral formulations object of the present invention, and in the evaluation of their safety and efficacy, the Inventors made use of the above mentioned C57BL/6J APC Min/+ transgenic mouse model. Hereafter are described the data showing the effect in C57BL/6J-APC Min/+ transgenic mice, orally fed silymarin added diets, containing soluble and insoluble fibres in different proportions with the purpose of highlighting the differentiative properties of the insoluble and indigestible fibre. […]\nAfter 10 weeks of treatment the animals received an intraperitoneal injection of 0.75 mg of Bromodeoxyuridine (BrdU), equivalent to 30 mg/kg, to verify the migration of cells of the intestinal mucosa along the villus axis (from crypt at the bottom to the luminal tip). […] Two blinded observers measured the number and size of polyps. […]"}, "[2]": {"test_system": "C57BL/6J-APC Min/+ transgenic mice", "assay": "Histological grading of dysplasia of adenomatous formations", "format": "in vivo, mouse", "settings": "estradiol-treated animals", "source_text": "Histological preparations of randomly chosen intestine sections of every animal from the different treatment groups were observed by a blinded pathologist, who graded the dysplasia of the adenomatous formations present as minor, mild or severe."}, "[3]": {"assay": "Body weight, mortality, dietary intake and tolerability during 10 weeks of diet", "settings": "standard diet, s.c. pellet 1.5 mg 17β-estradiol, mean ± SD", "procedure": "Silymarin up to 200 mg/kg was added to each diet. The diets were orally administered for 10 weeks to 114 male C57BL/6J-APC Min/+ transgenic mice 5-6 weeks old. These mice have a mutation of the APC gene, and are prone to develop colon adenomatous polyposis. […] The statistical analysis has been performed by means of the One-way Analysis of Variance and the t-Student tests, considering statistically significant a p<0.05.\nEvery oral treatment lasted 10 weeks. The treatment scheme was designed to highlight the effects of the type of fibre, associated or not with increasing amounts of silymarin."}, "[4]": {"test_system": "cells of the intestinal mucosa", "assay": "BrdU cell migration along the villus axis (highest labeled cell)", "format": "in vivo, mouse", "settings": "estrogen s.c., standard diet, 24 h after BrdU", "procedure": "After 10 weeks of treatment the animals received an intraperitoneal injection of 0.75 mg of Bromodeoxyuridine (BrdU), equivalent to 30 mg/kg, to verify the migration of cells of the intestinal mucosa along the villus axis (from crypt at the bottom to the luminal tip). This parameter allows to verify the normal esfoliative physiology of the intestinal mucosa, through which the mucosa keeps itself composed of healthy and vital cells. To this end, the animals were sacrificed 24, 48 and 72 hours after injection. Small intestine and colon were taken from every sacrificed animal. The small intestine was divided into three sections: proximal, medial and distal. The proximal tract was further divided in two portions that were subsequently scraped. One of the two was dipped in RNAlater® and stored at −20° C. and the other stored in liquid nitrogen. The two samples were used for Real Time PCR and Western Blotting, respectively. The medial and distal tracts, together with the colon, were used for the histological analysis. After a 3-hours pre-fixative treatment with formol, the intestinal tracts under examination were observed under an STM1 stereomicroscope, 3× magnification. Two blinded observers measured the number and size of polyps."}, "[5]": {"test_system": "C57BL/6J-APC Min/+ transgenic mice", "settings": "female transgenic mice, administration after ovariectomy, Weyant et al.; cited from earlier work"}}}
{"smiles": "C[C@]12CC[C@@H]3c4ccc(O)cc4CC[C@H]3[C@@H]1CC[C@@H]2O", "note": "[estrogen, 17β-estradiol]", "values": [{"measurement": "Number of intestinal polyps", "setting": "[1]", "result": "32.33 ± 12.06"}, {"measurement": "Polyps volume", "setting": "[1]; listed as Estrogen", "result": "141.78 ± 79.1", "unit": "mm^3"}, {"measurement": "Polyps volume", "setting": "[1]; listed as estradiol", "result": "ineffective"}, {"measurement": "Animals showing polyps with dysplasia classifiable as severe", "setting": "[2]", "result": 70, "unit": "%"}, {"measurement": "Body weight at time of sacrifice", "setting": "[3]", "result": "24.9 ± 2.8", "unit": "g"}, {"measurement": "24 hours migration of colonocytes from the crypt to the apex of the villus", "setting": "[4]", "result": "47.3 ± 10.5", "unit": "%"}, {"measurement": "Intestinal adenomas after ovariectomy", "setting": "[5]", "result": "caused a reduction in intestinal adenomas"}]}
